Results from patent US11053212B2, “Benzimidazole derivatives as bromodomain inhibitors” (GLAXOSMITHKLINE INTELLECTUAL PROPERTY DEVELOPMENT LIMITED, priority 2015, dated 2021).
Counter-ions that a name gives are not always drawn.

Columns and labels:
recombinant human CES1 = target: T1, recombinant human CES1 (Homo sapiens, UniProt P23141); assay: Hydrolysis by hCES-1 (HPLC assay); assay type: in vitro ADME; conditions: 50 μM test compound, 50 nM CES1, 20° C., pH 7.5
T1 construct: Recombinant human CES1 (Gly18-Glu563, bearing a polyhistidine tag at the C-terminus); polyhistidine (C); purchased Novoprotein, Summit, N.J., USA C450; host or cells: human cells
T1 sequence (P23141 18-563): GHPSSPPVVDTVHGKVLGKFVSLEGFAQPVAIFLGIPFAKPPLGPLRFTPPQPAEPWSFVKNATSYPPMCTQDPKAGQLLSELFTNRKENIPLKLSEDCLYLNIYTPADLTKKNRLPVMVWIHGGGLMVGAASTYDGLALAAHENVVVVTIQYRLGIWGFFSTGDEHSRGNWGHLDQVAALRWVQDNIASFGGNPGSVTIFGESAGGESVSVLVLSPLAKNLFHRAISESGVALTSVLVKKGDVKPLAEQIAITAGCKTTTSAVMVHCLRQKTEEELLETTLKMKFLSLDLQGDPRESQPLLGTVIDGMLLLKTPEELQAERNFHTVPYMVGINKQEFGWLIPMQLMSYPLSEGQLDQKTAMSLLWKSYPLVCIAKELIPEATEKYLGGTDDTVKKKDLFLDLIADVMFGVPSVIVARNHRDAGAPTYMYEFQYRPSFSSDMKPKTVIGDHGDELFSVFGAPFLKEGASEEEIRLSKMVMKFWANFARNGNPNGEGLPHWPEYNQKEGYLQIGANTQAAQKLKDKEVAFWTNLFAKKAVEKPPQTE
Procedure: Hydrolysis of ESM-containing BET inhibitors by carboxylesterase 1 (CES1) is one aspect of delivering a targeted molecule. Rates of hydrolysis of certain compounds of the invention by recombinant human CES1 were determined using an HPLC assay. Recombinant human CES1 (Gly18-Glu563, bearing a polyhistidine tag at the C-terminus) expressed in human cells and purified to homogeneity was obtained from Novoprotein, Summit, N.J., USA (catalogue number C450). Reactions were run in 384 well plates at 20° C. in a buffer of 50 mM sodium phosphate pH 7.5/100 mM NaCl.
Assays used a fixed concentration of test compound (50 μM) and CES1 (50 nM) and a time course of the reaction was obtained by stopping samples at increasing times by addition of formic acid to lower the pH. Stopped samples were subsequently analysed by HPLC to resolve product acid from unhydrolysed ester, using a 50×2 mm C18 5 μM reversed-phase column (Phenomenex Gemini) at a flow rate of 1 ml/min using a gradient of acetonitrile in water, containing 0.1% formic acid. Chromatography was monitored using absorbance at 300 nm wavelength. The % of product formed was determined using integrated peak areas and used to determine the initial rate of the reaction. The specific activity of the CES1 against each test compound under these conditions (in units of μM/min/μM) was obtained by dividing the initial rate of the reaction by the CES1 concentration.

BRD4 BD2 = target: T2, BRD4 BD2 (Homo sapiens, UniProt O60885, Y97A); assay: TR-FRET binding assay, BRD4 BD2 (mutant protein); conditions: 10 nM mutated bromodomain protein, Alexa Fluor647 ligand at Kd, read-out: mean pIC50 in the BRD4 BD2 assay (converted)
T2 construct: BRD4 (1-477) (Y97A) and (Y390A); made in house; host or cells: E. coli (pET15b vector)
Procedure: Biological Data Time Resolved Fluorescence Resonance Energy Transfer (TR-FRET) Assay
Binding was assessed using a time resolved fluorescent resonance energy transfer binding assay. This utilises a 6 His purification tag at the N-terminal of the proteins as an epitope for an anti-6 His antibody labeled with Europium chelate (PerkinElmer AD0111) allowing binding of the Europium to the proteins which acts as the donor fluorophore.
In the absence of a competing compound, excitation of the Europium causes the donor to emit at λ618 nm which excites the Alexa labelled bromodomain binding compound leading to an increased energy transfer that is measurable at λ647 nM. In the presence of a sufficient concentration of a compound that can bind these proteins, the interaction is disrupted leading to a quantifiable drop in fluorescent resonance energy transfer.
The binding of compounds of the invention to Bromodomains BRD2, BRD3, BRD4 and BRDT was assessed using mutated proteins to detect differential binding to either Binding Domain 1 (BD1) or Binding Domain 2 (BD2) on the bromodomain. […] Therefore in the final assay conditions, binding of the fluoroligand to the mutated domain cannot be detected and subsequently the assay is suitable to determine the binding of compounds to the single non-mutated bromodomain.
Recombinant Human Bromodomains [(BRD2 (1-473) (Y113A) and (Y386A), BRD3 (1-435) (Y73A) and (Y348A) BRD4 (1-477) (Y97A) and (Y390A) and BRDT (1-397) (Y66A) and (Y309A)] were expressed in E coli cells (in pET15b vector for BRD2/3/4 and in pET28a vector for BRDT) with a 6-His tag at the N-terminal. The His-tagged Bromodomain pellet was resuspended in 50 mM HEPES (pH7.5), 300 mM NaCl, 10 mM imidazole & 1 μl/ml protease inhibitor cocktail and extracted from the E coli cells using sonication and purified using a nickel sepharose high performance column, the proteins were washed and then eluted with a linear gradient of 0-500 mM imidazole with buffer 50 mM HEPES (pH7.5), 150 mM NaCl, 500 mM imidazole, over 20 column volumes. Final purification was completed by Superdex 200 prep grade size exclusion column. Purified protein was stored at −80° C. in 20 mM HEPES pH 7.5 and 100 mM NaCl.
All assay components were dissolved in buffer composition of 50 mM HEPES pH7.4, 50 mM NaCl, 5% Glycerol, 1 mM DTT and 1 mM CHAPS. The final concentration of bromodomain proteins were 10 nM and the Alexa Fluor647 ligand was at Kd. These components were premixed and 5 μl of this reaction mixture was added to all wells containing 50 nl of various concentrations of test compound or DMSO vehicle (0.5% DMSO final) in Greiner 384 well black low volume microtitre plates and incubated in dark for 30 minutes at rt. […] of detection mixture containing 1.5 nM final concentration anti-6His Europium chelate was added to all wells and a further dark incubation of at least 30 minutes was performed. Plates were then read on the Envision plate reader, (⋅ex=317 nm, donor ⋅em=615 nm; acceptor ⋅em=665 nm; Dichroic LANCE dual). Time resolved fluorescent intensity measurements were made at both emission wavelengths and the ratio of acceptor/donor was calculated and used for data analysis. All data was normalized to the mean of 16 high (inhibitor control—Example 11 of WO 2011/054846A1) and 16 low (DMSO) control wells on each plate. A four parameter curve fit of the following form was then applied: y=a+((b−a)/(1+(10^x/10^c)^d) Where ‘a’ is the minimum, […], ‘c’ is the pIC50 and […].

SMILES	rate of hydrolysis (specific activity of CES1 against test compound) (recombinant human CES1)	IC50 (BRD4 BD2) [µM]
Cc1cc(-c2nc3cc(CN[C@H](C(=O)OC4CCCC4)C(C)C)ccc3n2CC2CCOCC2)c[nH]c1=O [Example 16, (S)-cyclopentyl 3-methyl-2-(((2-(5-methyl-6-oxo-1,6-dihydropyridin-3-yl)-1-((tetrahydro-2H-pyran-4-yl)methyl)-1-benzo[d]imidazol-5-yl)methyl)amino)butanoate]	no detectable level of hydrolysis	
Cc1cc(-c2nc3cc(CN[C@@H](CC(C)C)C(=O)O)ccc3n2CCCO)c[nH]c1=O [Example 21, (S)-2-(((1-(3-hydroxypropyl)-2-(5-methyl-6-oxo-1,6-dihydropyridin-3-yl)-1H-benzo[d]imidazol-5-yl)methyl)amino)-4-methylpentanoic acid, hydrochloride]		> 50.1
Cc1cc(-c2nc3cc(CN[C@@H](CC(C)C)C(=O)O)ccc3n2C)c[nH]c1=O [Example 24, (S)-4-methyl-2-(((1-methyl-2-(5-methyl-6-oxo-1,6-dihydropyridin-3-yl)-1H-benzo[d]imidazol-5-yl)methyl)amino)pentanoic acid, hydrochloride]		> 50.1
Cc1cc(-c2nc3cc(CN[C@@H](CC(C)C)C(=O)O)ccc3n2CC2CCN(C)CC2)c[nH]c1=O [Example 48, (S)-4-methyl-2-(((2-(5-methyl-6-oxo-1,6-dihydropyridin-3-yl)-1-((1-methylpiperidin-4-yl)methyl)-1H-benzo[d]imidazol-5-yl)methyl)amino)pentanoic acid, bis hydrochloride]		> 50.1
Cc1cc(-c2nc3cc(CN[C@@H](CC(C)C)C(=O)O)ccc3n2C2CCN(C)CC2)c[nH]c1=O [Example 60, (S)-4-methyl-2-(((2-(5-methyl-6-oxo-1,6-dihydropyridin-3-yl)-1-(1-methylpiperidin-4-yl)-1H-benzo[d]imidazol-5-yl)methyl)amino)pentanoic acid, bis-hydrochloride]		> 50.1
Cc1cc(-c2nc3cc(CN[C@H](C(=O)OC4CCCC4)[C@@H](C)O)ccc3n2CC2CCOCC2)c[nH]c1=O [Example 138, (2S,3R)-cyclopentyl 3-hydroxy-2-(((2-(5-methyl-6-oxo-1,6-dihydropyridin-3-yl)-1-((tetrahydro-2H-pyran-4-yl)methyl)-1H-benzo[d]imidazol-5-yl)methyl)amino)butanoate]	no detectable level of hydrolysis	

Other lines, results leading:

rate of hydrolysis (specific activity of CES1 against test compound) (recombinant human CES1)	IC50 (BRD4 BD2) [µM]	SMILES
no detectable level of hydrolysis		Cc1cc(-c2nc3cc(CN[C@H](C(=O)OCC(C)C)[C@@H](C)O)ccc3n2C[C@H]2CN(C)CCO2)cn(C)c1=O (single isomer, unassigned) [Example 162a]
no detectable level of hydrolysis		Cc1cc(-c2nc3cc(CN[C@H](C(=O)OC4CCCC4)[C@@H](C)O)ccc3n2CC2CCOCC2)cn(C)c1=O [Example 156, (2S,3R)-cyclopentyl 2-(((2-(1,5-dimethyl-6-oxo-1,6-dihydropyridin-3-yl)-1-((tetrahydro-2H-pyran-4-yl)methyl)-1H-benzo[d]imidazol-5-yl)methyl)amino)-3-hydroxybutanoate]
no detectable level of hydrolysis		Cc1cc(-c2nc3cc(CN[C@H](C(=O)OC(C)(C)C)[C@@H](C)O)ccc3n2CC2CCOCC2)cn(C)c1=O [Example 212, (2S,3R)-tert-butyl 2-(((2-(1,5-dimethyl-6-oxo-1,6-dihydropyridin-3-yl)-1-((tetrahydro-2H-pyran-4-yl)methyl)-1H-benzo[d]imidazol-5-yl)methyl)amino)-3-hydroxybutanoate]
no detectable level of hydrolysis		Cc1cc(-c2nc3cc(CN[C@H](C(=O)O[C@H]4CCOC4)[C@@H](C)O)ccc3n2CC2CCOCC2)cn(C)c1=O [Example 214]
no detectable level of hydrolysis		COC[C@H](C)n1c(-c2cc(C)c(=O)n(C)c2)nc2cc(CN[C@H](C(=O)O[C@H]3CCOC3)[C@@H](C)O)ccc21 [Example 216]
